Reference: publication PMC7465040, “Cytotoxic and Anti-Plasmodial Activities of Stephania dielsiana Y.C. Wu Extracts and the Isolated Compounds” (Molecules, 2020)
Read-outs that look alike come from different tables or passages of the source.

What was measured:
[1] = system: MCF 10A; assay: SRB cell proliferation assay, MCF10A non-cancer cells; assay type: cell-based; conditions: Homo sapiens, read-out: IC50 (μM ± SD) MCF 10A
Experimental: (§1) In vitro anticancer study: The in vitro anti-proliferative tests were carried out as described previously, using aliquots of the cell lines used therein. Briefly, HeLa, MDA-MB-231 and MDA-MB-468, MCF7, and 184B5 and MCF 10A cell lines were purchased from ATCC. The identity of the cell lines presented in this study were verified by short tandem repeat profiling by Genetica DNA Laboratories (www.celllineauthentication.com) (April 8, 2015). MCF10A was grown in DMEM F12 medium supplemented with 0.02 μg/mL epidermal growth factor, 10% FBS, 10 μg/mL insulin and […] hydrocortisone. MDA-MB-468 were grown in DMEM supplemented with 10% FBS and antibiotics cocktail (100 μg/mL streptomycin, 100 units/mL penicillin and 250 ng/mL amphotericin B). SRB cell proliferation assays were carried out as previously described, with some minor modifications. The concentration range for all tested cell lines were from 100–0.39 μg/mL for extracts and 100–0.39 μM for pure compounds. […] All experiments were carried out at least twice.

[2] = system: chloroquine-resistant W2 P. falciparum strain; assay: In vitro anti-plasmodial assay (HRP2 ELISA), W2; assay type: cell-based, Plasmodium falciparum; conditions: for IC50: read-out: IC50 (μM ± SD) W2; for SI W2 184B5 / SI W2 MCF10A: Table 3; for SI W2 184B5: selectivity index between 184B5 and parasites W2; for SI W2 MCF10A: selectivity index between MCF10A and parasites W2
Experimental: (§2) Parasites were grown in A-positive human blood (Etablissement Français du Sang, Marseille, France) under controlled atmospheric conditions that consisted of 10% O2, 5% CO2, and 85% N2 at 37 °C with a humidity of 95%.
(§3) In vitro anti-plasmodial assay: The two P. falciparum strains 3D7 and W2 were synchronized twice with sorbitol before use. The clonality of these strains was verified both in our laboratory and in an independent laboratory from the Worldwide Anti-malarial Resistance Network (WWARN) by PCR genotyping of the polymorphic genetic markers msp1 and msp2 and microsatellite loci. The compounds were re-suspended in methanol or DMSO 5% (v/v) and then diluted in methanol to obtain final concentrations ranging from 0.008 to 500 μg/mL (final concentration of 0.5% of methanol or DMSO). […] The plates were incubated for 72 h at 37 °C in controlled atmospheric conditions 5% CO2, 10% O2, and […]. After thawing the plates, haemolysed cultures were homogenized by vortexing the plates. Both the success of the drug susceptibility assay and the appropriate volume of haemolysed culture to use for each assay were determined for each clinical isolate during a preliminary HRP2 ELISA. Both the pre-test and subsequent ELISA assays were performed using a commercial kit (Malaria Ag Celisa, ref KM2159, Cellabs PTY LTD, Brookvale, Australia) according to the manufacturer’s recommendation. The optical density (OD) of each sample was measured with a spectrophotometer (Safire 2, Tecan, Lyon, France). […] The anti-plasmodial in vitro assay was performed five times for each product. The IC50 values represented the mean value calculated from five experiments. According to Hout, a selectivity index (SI) was based on the ratio between anti-parasitic and cytotoxic activities. In the case of our study, a SI was calculated between non-tumorigenic cell line 184B5 and parasites 3D7 or W2 and/or MCF10A and these two parasites.

[3] = system: MDA-MB-231; assay: SRB cell proliferation assay, MDA-MB-231; assay type: cell-based, human; conditions: for IC50: Homo sapiens, read-out: IC50 (μM ± SD) MDA-MB-231
Experimental: as §1

[4] = system: MCF7; assay: SRB cell proliferation assay, MCF7; assay type: cell-based, human; conditions: for IC50: Homo sapiens, read-out: IC50 (μM ± SD) MCF7
Experimental: as §1

[5] = system: MDA-MB-468; assay: SRB cell proliferation assay, MDA-MB-468; assay type: cell-based, human; conditions: for IC50: Homo sapiens, read-out: IC50 (μM ± SD) MDA-MB-468
Experimental: as §1

[6] = system: HeLa; assay: SRB cell proliferation assay, HeLa; assay type: cell-based, human; conditions: for IC50: Homo sapiens, HeLa, 72 h, read-out: IC50 (μM ± SD) HeLa
Experimental: as §1

[7] = system: 184B5; assay: SRB cell proliferation assay, 184B5 non-cancer cells; assay type: cell-based, human; conditions: Homo sapiens
Experimental: as §1

[8] = system: chloroquine-susceptible 3D7 P. falciparum strain; assay: In vitro anti-plasmodial assay (HRP2 ELISA), 3D7; assay type: cell-based, Plasmodium falciparum; conditions: for IC50: read-out: IC50 (μM ± SD) 3D7; for SI 3D7 184B5 / SI 3D7 MCF10A: Table 3; for SI 3D7 184B5: selectivity index between 184B5 and parasites 3D7; for SI 3D7 MCF10A: selectivity index between MCF10A and parasites 3D7
Experimental: as §2, §3

[9] = system: Plasmodium falciparum 3D7 and W2 strains; assay: In vitro anti-plasmodial assay, both strains; assay type: cell-based
Experimental: as §2, §3

[10] = system: HeLa, MDA-MB231, MDA-MB-468, MCF7, 184B5 and MCF10A cell lines; assay: SRB cell proliferation assay, whole panel of cell lines; assay type: cell-based, human
Experimental: as §1

[11] = Plasmodium falciparum, W2, 72 h, 72 h, HRP2 ELISA, mean of five experiments
[12] = Plasmodium falciparum, 3D7, 72 h, 72 h, HRP2 ELISA, mean of five experiments
[13] = 72 h, HRP2 ELISA, mean of five experiments
[14] = 184B5, Table 3, non-cancer cell line, read-out: IC50 (μM ± SD) 184B5

COc1cccc2c1C[C@@H]1c3c(cc4c(c3-2)OCO4)CCN1C [Stephanine 3, stephanine]
IC50 ([1]; 72 h): 7.19 ± 0.33 µM | IC50 [1]: 7.19 ± 0.33 µM | Anti-plasmodial activity on W2 (in words) [2]: not effective | IC50 ([2]; Plasmodium falciparum, W2, 72 h): 1.32 ± 0.38 µM | SI W2 184B5 [2]: 4.73 | SI W2 MCF10A [2]: 5.45 | IC50 ([3]; MDA-MB-231, 72 h): 5.66 ± 0.16 µM | Selectivity index (SI) 184B5 versus MDA-MB-231 ([3]; Table 2B, non-cancer 184B5 vs cancer MDA-MB-231): 1.10 | Selectivity index (SI) MCF10A versus MDA-MB-231 ([3]; Table 2B, non-cancer MCF10A vs cancer MDA-MB-231): 1.27 | IC50 ([4]; MCF7, 72 h): 6.49 ± 0.43 µM | Selectivity index (SI) 184B5 versus MCF7 ([4]; Table 2B, non-cancer 184B5 vs cancer MCF7): 0.96 | Selectivity index (SI) MCF10A versus MCF7 ([4]; Table 2B, non-cancer MCF10A vs cancer MCF7): 1.11 | IC50 ([5]; MDA-MB-468, 72 h): 7.14 ± 2.11 µM | Selectivity index (SI) 184B5 versus MDA-MB-468 ([5]; Table 2B, non-cancer 184B5 vs cancer MDA-MB-468): 0.88 | Selectivity index (SI) MCF10A versus MDA-MB-468 ([5]; Table 2B, non-cancer MCF10A vs cancer MDA-MB-468): 1.01 | IC50 [6]: 3.33 ± 0.23 µM | Selectivity index (SI) 184B5 versus HeLa ([6]; Table 2B, non-cancer 184B5 vs cancer HeLa): 1.88 | Selectivity index (SI) MCF10A versus HeLa ([6]; Table 2B, non-cancer MCF10A vs cancer HeLa): 2.16 | IC50 ([7]; 184B5, 72 h, read-out: IC50 (μM ± SD) 184B5): 6.25 ± 0.14 µM | IC50 ([7]; 184B5, read-out: IC50 (μM ± SD) 184B5): 6.25 ± 0.14 µM | Anti-plasmodial activity on 3D7 (in words) [8]: very effective | IC50 ([8]; Plasmodium falciparum, 3D7, 72 h): 0.69 ± 0.15 µM | SI 3D7 184B5 [8]: 9.06 | SI 3D7 MCF10A [8]: 10.42

C[C@H]1[C@@H](O)O[C@@H]2O[C@@]3(C)CC[C@H]4[C@H](C)CC[C@@H]1[C@@]24OO3 [Dihydroartemisinin, reference compound]
IC50 [2, 11]: 0.002 ± 0.001 µM | IC50 [8, 12]: 0.002 ± 0.001 µM

COc1cc2c(cc1OC)[C@@H]1Cc3ccc(OC)c(OC)c3CN1CC2 [Tetrahydropalmatine 7, tetrahydropalmatine]
IC50 ([1]; Table 2A, SRB, 72 h): > 50 µM | IC50 ([1]; Table 3, non-cancer cell line): > 50 µM | IC50 [2, 13]: 226 ± 19.8 µM | IC50 [2, 11]: 216 to 226 µM | SI W2 184B5 [2]: >0.22 | SI W2 MCF10A [2]: >0.22 | IC50 ([3]; MDA-MB-231, Table 2A, SRB, 72 h): > 50 µM | IC50 ([4]; MCF7, Table 2A, SRB, 72 h): > 50 µM | IC50 ([5]; MDA-MB-468, Table 2A, SRB, 72 h): > 50 µM | Anti-plasmodial activity against both 3D7 and W2 (in words) [9]: not active | Anti-proliferative activity (in words) [10]: did not show any effect | IC50 ([6]; Table 2A, SRB): > 50 µM | IC50 ([7]; 184B5, Table 2A, SRB, 72 h, read-out: IC50 (μM ± SD) 184B5): > 50 µM | IC50 [7, 14]: > 50 µM | IC50 [8, 13]: 276 ± 14.4 µM | SI 3D7 184B5 [8]: >0.18 | SI 3D7 MCF10A [8]: >0.18

OC(c1cc(C(F)(F)F)nc2c(C(F)(F)F)cccc12)C1CCCCN1 (stereo not drawn) [Mefloquine, reference compound]
IC50 [2, 11]: 0.022 ± 0.006 µM | SI W2 184B5 [2]: 490.9 | IC50 [7, 14]: 10.8 ± 0.75 µM | IC50 [8, 12]: 0.052 ± 0.009 µM | SI 3D7 184B5 [8]: 207.6
